From ChEMBL document CHEMBL1201862, “PubChem BioAssay data set” (2004)
The source made the active and inactive calls.

Key:
[1] = target: T1, Delta-type opioid receptor (Homo sapiens, UniProt P41143); assay: HTS Image-Based Screen for Antagonists of the DOR Receptor. [Related pubchem assays (depositor defined):AID1777, AID1785, AID1786, AID2133]; type: functional
[2] = target: Mu-type opioid receptor (Homo sapiens, UniProt P35372); assay: HTS Image-Based Screen for Agonists of the MOR Receptor. [Related pubchem assays (depositor defined):AID1777, AID1785, AID1786, AID2133]; type: functional;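 also: imaging of beta-arrestin GFP recruitment into spots after receptor activation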
[3] = target: T1, Delta-type opioid receptor; assay: HTS Image-Based Screen for Agonists of the DOR Receptor. [Related pubchem assays (depositor defined):AID1777, AID1786, AID2133]; type: functional
[4] = Trypanosoma cruzi growth suppression in host cells – NIH3T3 host cells, beta-gal luminescence, confirmation (AID 2044); type: functional, cell-based;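 also: intracellular parasites grown in NIH/3T3 mouse fibroblasts as host cells; luminescent beta-galactosidase reporter signal from transgenic T. cruzi replicating inside host cells; inhibitors lower the luminescence signal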
[5] = target: T2, Kappa-type opioid receptor (Homo sapiens, UniProt P41145); type: functional
[6] = NIH3T3 cell viability loss – ATP luminescence, mouse fibroblasts, counter-screen, dose response (AID 2010); type: functional, cell-based;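 also: cells exposed to compound for about 90 hours before reading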
[7] = target: T3, Beta-galactosidase (Escherichia coli, UniProt Q8VNN2); type: functional
[8] = target: T2, Kappa-type opioid receptor; type: functional; remark: listed apart in the source
[9] = target: T4, C-C chemokine receptor type 6 (Homo sapiens, UniProt P51684); assay: antagonism of CCR6 beta-arrestin recruitment – cell-based, luminescent beta-arrestin readout, dose response (AID 504728); type: functional
T4 sequence (P51684 whole entry): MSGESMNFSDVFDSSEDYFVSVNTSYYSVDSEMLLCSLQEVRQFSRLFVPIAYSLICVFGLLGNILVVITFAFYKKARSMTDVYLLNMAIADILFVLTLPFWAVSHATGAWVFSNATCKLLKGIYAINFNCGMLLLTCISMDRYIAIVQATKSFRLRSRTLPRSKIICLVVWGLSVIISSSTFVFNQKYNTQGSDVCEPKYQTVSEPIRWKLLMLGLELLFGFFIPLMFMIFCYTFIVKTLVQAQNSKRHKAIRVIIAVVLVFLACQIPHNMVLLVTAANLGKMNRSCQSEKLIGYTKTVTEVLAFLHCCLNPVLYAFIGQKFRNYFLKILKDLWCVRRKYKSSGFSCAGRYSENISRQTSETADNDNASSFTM

[10] = target: T3, Beta-galactosidase; assay: detection-enzyme interference by beta-gal modulators – biochemical, E. coli enzyme, set 3, artefact control for CCR6 antagonist project, dose response (AID 504712); type: functional
[11] = target: Cytochrome P450 2C19 (Homo sapiens, UniProt P33261); assay: Cytochrome panel assay with activity outcomes. Panel member name: p450-cyp2c19 Compounds with AC50 equal or less than 10 uM are considered active; type: functional; details: read-out: AC50
[12] = target: Cytochrome P450 2C9 (Homo sapiens, UniProt P11712)
[13] = system: Streptococcus sp. 'group A'; assay: Streptococcus pyogenes SK(-)GAS viability under kanamycin – luminescence, BacTiterGlo, confirmation, counter-screen for streptokinase expression inhibitor project, dose response (AID 1900); type: functional, organism-based
[14] = target: T5, Streptokinase A (Streptococcus pyogenes serotype M1, UniProt P10520); assay: viability-normalized secreted streptokinase activity reduction – plasminogen activation absorbance, OD405, dose response (AID 1914); type: functional, Streptococcus pyogenes M1 GAS;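 also: secreted streptokinase activity via plasminogen activation per viability signal from cell pellet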
T5 sequence (P10520 whole entry): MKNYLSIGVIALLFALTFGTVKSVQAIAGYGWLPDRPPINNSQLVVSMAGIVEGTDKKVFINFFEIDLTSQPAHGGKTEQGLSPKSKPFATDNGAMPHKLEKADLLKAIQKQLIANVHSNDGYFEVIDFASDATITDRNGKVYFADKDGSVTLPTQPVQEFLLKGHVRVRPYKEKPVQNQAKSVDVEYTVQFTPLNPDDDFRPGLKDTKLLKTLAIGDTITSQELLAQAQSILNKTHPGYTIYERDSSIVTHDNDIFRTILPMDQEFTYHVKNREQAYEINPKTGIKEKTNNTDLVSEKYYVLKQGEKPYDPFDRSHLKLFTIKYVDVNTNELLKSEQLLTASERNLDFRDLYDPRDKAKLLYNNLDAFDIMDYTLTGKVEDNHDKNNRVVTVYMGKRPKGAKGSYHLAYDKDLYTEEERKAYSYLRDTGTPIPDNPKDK

[15] = system: Streptococcus; assay: GAS UMAA2166 growth inhibition – luminescence, BacTiterGlo, counter-screen for streptokinase expression inhibitor project, dose response (AID 1915); type: functional, organism-based;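 also: potency for reduction of bacterial viability or growth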
[16] = target: T6, Bcl-2-related protein A1 (Mus musculus, UniProt Q07440); type: functional;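 also: confirmatory dose–response counterscreen on Bfl-1, used to check hits from a UBC13 polyubiquitin inhibitor campaign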
T6 sequence (Q07440 whole entry): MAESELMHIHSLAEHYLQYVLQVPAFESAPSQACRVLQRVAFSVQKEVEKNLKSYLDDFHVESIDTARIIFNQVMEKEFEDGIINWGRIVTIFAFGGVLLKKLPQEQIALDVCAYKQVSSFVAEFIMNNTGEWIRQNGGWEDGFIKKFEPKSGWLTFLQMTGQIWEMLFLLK

[17] = target: T7, Ubiquitin-conjugating enzyme E2 N (Homo sapiens, UniProt P61088); type: functional
T7 sequence (P61088 whole entry): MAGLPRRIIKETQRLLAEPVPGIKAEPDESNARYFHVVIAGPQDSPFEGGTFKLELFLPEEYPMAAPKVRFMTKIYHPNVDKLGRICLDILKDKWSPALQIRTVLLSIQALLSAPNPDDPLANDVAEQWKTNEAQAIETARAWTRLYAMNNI

[18] = target: Neurotensin receptor type 1 (Homo sapiens, UniProt P30989); type: functional;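 also: Image-based confirmatory dose-response assay measuring agonist activity at NTR1; NTR1-expressing U2OS osteosarcoma cells imaged for beta-arrestin GFP spot formation; agonist potency where compounds increase beta-arrestin recruitment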
[19] = target: T7, Ubiquitin-conjugating enzyme E2 N; type: functional; remark: listed apart in the source
[20] = target: Melanocortin receptor 4 (Homo sapiens, UniProt P32245); type: functional, cell-based;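 also: Cell-based assay with luminescence read-out, confirmatory dose-response testing for agonist activity of biased ligands at MC4R; human U2OS cells with tagged receptor and beta-arrestin; potency of agonists that increase receptor coupling to beta-arrestin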
[21] = target: T8, Short transient receptor potential channel 4 (Mus musculus, UniProt Q9QUQ5); assay: calcium entry via TRPC4 opening agents – cell-based, HEK293 TRPC4/mu-opioid, Fluo-4 calcium, dose response (AID 434937); type: functional
T8 sequence (Q9QUQ5 whole entry): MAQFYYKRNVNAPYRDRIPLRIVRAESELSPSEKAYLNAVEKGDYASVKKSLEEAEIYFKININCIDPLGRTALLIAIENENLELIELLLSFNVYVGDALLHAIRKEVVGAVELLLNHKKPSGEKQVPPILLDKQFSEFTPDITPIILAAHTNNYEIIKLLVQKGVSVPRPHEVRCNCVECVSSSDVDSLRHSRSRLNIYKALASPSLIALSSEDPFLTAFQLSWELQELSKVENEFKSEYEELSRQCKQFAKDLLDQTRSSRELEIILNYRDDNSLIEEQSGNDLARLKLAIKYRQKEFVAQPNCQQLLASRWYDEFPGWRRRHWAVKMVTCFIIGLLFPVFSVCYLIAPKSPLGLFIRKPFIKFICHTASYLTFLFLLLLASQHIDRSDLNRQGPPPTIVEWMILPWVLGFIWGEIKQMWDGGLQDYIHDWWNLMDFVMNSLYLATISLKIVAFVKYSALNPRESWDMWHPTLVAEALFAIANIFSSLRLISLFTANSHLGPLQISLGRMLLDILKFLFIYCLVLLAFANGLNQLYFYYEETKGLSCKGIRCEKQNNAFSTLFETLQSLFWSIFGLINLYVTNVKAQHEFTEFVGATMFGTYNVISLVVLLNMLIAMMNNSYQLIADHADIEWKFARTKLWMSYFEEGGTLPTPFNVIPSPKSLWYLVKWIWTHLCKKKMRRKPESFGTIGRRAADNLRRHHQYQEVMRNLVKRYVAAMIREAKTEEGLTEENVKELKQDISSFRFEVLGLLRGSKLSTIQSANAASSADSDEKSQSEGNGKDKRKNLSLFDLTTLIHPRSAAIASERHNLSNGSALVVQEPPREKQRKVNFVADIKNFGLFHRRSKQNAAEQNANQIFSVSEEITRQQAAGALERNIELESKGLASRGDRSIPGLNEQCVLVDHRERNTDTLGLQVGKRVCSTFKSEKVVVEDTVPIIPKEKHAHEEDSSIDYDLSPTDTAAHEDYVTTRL

[22] = target: Cytochrome P450 2D6 (Homo sapiens, UniProt P10635);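 also: CYP2D6 member of a cytochrome P450 panel assay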
[23] = target: T9, Tyrosine-protein phosphatase non-receptor type 7 (Homo sapiens, UniProt P35236); type: functional
T9 sequence (P35236 whole entry): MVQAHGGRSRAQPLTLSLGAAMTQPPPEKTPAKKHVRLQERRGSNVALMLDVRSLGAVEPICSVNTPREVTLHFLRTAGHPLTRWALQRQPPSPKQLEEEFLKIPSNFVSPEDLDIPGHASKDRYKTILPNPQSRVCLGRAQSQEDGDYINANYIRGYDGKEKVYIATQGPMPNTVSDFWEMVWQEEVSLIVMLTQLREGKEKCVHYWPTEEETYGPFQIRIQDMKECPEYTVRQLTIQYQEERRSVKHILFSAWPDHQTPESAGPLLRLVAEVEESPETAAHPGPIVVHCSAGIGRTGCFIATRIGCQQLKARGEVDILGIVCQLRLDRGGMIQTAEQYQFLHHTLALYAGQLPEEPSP

[24] = target: T10, Tyrosine-protein phosphatase non-receptor type 22 (Homo sapiens, UniProt Q9Y2R2); type: functional
T10 sequence (Q9Y2R2 whole entry): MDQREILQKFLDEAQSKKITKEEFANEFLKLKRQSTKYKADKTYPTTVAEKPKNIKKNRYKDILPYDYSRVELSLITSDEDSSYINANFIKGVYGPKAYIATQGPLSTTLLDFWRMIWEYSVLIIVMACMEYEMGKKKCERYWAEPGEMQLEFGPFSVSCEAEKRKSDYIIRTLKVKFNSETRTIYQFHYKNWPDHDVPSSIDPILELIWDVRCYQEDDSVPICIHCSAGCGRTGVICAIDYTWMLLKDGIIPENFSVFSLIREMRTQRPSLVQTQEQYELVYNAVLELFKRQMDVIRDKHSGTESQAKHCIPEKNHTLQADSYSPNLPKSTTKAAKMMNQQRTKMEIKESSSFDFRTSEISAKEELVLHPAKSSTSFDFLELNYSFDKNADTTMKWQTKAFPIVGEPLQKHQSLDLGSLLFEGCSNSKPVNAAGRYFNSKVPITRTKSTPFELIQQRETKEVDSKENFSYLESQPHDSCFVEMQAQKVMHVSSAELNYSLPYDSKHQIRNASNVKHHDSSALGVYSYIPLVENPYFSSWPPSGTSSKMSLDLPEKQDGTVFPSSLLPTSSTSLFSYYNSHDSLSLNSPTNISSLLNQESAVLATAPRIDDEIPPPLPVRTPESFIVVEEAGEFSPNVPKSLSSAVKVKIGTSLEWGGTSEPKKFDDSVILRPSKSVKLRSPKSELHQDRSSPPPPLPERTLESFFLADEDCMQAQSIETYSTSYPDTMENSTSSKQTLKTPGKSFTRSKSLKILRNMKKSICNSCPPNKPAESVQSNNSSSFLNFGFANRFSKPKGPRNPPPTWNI

[25] = target: T10, Tyrosine-protein phosphatase non-receptor type 22; type: functional; remark: listed apart in the source
[26] = target: T11, E3 ubiquitin-protein ligase XIAP (Homo sapiens, UniProt P98170); assay: Counter Screen using XIAP-Bir3 for Chemical Antagonists of Bir1/2 domains of IAP-family anti-apoptotic proteins. [Related pubchem assays (depositor defined):AID1018, AID1449, AID1514, AID1638, AID1749, AID1750, AID488957, AID488963]
[27] = target: T11, E3 ubiquitin-protein ligase XIAP; assay: small molecules displacing peptide from XIAP – biochemical, IAP family, fluorescence polarization (AID 1018); type: functional

T11 sequence (P98170 whole entry): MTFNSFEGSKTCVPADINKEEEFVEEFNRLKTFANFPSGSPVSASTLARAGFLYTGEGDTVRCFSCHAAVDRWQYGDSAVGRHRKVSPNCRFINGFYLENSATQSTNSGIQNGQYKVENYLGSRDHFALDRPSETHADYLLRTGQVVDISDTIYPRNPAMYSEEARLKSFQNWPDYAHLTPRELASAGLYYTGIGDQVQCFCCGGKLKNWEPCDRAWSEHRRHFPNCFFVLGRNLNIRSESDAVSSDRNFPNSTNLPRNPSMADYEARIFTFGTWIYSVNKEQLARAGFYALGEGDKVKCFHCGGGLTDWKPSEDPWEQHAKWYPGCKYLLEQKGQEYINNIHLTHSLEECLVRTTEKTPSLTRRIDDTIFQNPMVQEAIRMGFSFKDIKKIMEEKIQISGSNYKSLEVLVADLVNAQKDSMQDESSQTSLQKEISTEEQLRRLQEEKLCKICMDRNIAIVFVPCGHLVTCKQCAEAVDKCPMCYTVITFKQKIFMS
T2 sequence (P41145 whole entry): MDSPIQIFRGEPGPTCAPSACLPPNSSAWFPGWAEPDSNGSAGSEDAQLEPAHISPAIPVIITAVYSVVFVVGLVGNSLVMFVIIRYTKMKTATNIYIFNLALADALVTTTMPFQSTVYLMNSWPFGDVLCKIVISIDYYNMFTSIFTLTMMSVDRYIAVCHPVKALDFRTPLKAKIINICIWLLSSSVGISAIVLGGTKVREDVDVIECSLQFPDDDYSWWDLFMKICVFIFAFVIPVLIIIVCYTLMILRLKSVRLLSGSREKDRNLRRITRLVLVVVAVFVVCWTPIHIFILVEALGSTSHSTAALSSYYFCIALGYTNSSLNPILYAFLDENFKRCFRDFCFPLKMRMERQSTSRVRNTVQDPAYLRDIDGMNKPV
T3 sequence (Q8VNN2 whole entry): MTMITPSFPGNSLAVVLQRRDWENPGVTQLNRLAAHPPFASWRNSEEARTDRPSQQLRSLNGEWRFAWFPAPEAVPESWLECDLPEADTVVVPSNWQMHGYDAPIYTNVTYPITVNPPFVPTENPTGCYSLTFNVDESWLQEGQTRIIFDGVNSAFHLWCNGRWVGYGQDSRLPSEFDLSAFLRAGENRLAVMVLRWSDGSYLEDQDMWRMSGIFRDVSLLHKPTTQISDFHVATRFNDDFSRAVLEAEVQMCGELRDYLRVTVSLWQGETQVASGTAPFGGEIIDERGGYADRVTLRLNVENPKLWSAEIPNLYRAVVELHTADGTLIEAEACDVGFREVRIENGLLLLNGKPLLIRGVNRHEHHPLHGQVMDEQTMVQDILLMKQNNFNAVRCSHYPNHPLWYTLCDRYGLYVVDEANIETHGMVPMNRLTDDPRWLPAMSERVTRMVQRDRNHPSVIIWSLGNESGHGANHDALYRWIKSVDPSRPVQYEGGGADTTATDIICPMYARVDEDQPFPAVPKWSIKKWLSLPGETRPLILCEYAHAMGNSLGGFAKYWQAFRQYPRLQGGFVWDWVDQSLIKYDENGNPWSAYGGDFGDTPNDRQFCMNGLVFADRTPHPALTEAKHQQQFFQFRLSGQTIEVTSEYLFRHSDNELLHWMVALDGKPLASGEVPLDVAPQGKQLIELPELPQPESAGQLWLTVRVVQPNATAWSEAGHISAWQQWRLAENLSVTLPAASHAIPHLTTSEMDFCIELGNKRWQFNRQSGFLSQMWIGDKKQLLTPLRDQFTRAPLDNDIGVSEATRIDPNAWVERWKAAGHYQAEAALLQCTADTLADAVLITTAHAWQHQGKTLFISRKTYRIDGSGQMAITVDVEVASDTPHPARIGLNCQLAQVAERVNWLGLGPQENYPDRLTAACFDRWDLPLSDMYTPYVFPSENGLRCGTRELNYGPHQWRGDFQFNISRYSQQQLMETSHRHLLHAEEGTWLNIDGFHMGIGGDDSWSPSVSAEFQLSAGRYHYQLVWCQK
T1 sequence (P41143 whole entry): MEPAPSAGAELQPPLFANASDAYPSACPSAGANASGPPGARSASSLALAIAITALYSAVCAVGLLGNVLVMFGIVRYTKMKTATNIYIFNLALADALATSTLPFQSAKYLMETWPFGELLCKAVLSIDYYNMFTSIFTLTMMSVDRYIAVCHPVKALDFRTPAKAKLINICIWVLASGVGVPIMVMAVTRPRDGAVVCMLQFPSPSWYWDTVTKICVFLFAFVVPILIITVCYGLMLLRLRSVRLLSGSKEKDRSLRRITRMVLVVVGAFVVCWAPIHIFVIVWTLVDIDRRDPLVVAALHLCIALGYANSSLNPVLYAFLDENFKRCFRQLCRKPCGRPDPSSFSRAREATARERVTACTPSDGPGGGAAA
Sequence of Mu-type opioid receptor (P35372 whole entry): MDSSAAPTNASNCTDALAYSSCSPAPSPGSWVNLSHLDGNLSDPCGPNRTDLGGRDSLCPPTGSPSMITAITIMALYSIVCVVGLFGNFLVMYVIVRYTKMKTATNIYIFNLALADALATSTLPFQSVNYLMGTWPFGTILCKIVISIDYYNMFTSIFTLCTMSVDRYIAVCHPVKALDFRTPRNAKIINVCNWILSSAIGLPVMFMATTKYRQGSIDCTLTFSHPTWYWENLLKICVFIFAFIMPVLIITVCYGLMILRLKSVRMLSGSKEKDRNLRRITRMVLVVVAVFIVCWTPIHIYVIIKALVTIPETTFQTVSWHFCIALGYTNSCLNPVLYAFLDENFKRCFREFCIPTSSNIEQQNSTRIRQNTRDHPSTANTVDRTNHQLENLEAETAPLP
Sequence of Cytochrome P450 2C9 (P11712 whole entry): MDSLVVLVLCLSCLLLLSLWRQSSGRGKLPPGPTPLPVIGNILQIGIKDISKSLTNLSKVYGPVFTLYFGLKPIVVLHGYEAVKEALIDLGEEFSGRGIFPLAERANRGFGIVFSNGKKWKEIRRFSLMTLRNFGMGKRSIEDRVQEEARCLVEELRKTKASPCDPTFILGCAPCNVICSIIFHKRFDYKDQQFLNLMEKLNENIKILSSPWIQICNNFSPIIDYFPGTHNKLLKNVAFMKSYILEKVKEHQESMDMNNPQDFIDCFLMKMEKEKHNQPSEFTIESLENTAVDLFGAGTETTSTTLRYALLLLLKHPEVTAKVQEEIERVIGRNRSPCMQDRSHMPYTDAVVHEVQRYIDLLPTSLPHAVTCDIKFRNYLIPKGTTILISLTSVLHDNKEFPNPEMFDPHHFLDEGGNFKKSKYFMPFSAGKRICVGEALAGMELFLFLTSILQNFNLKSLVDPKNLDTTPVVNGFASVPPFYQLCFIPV
Sequence of Cytochrome P450 2C19 (P33261 whole entry): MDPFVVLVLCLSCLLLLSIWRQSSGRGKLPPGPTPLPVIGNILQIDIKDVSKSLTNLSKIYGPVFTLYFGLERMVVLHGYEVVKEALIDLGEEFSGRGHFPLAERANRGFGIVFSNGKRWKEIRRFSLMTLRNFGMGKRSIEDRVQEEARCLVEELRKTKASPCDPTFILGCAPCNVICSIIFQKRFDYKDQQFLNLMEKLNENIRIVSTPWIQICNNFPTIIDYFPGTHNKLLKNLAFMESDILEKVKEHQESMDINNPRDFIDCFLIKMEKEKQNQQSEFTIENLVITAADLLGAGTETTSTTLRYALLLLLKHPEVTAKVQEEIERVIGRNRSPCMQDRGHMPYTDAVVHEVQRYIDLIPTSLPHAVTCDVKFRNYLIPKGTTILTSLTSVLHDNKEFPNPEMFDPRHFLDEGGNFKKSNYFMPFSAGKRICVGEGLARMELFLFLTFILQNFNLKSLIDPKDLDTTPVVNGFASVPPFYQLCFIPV
Sequence of Melanocortin receptor 4 (P32245 whole entry): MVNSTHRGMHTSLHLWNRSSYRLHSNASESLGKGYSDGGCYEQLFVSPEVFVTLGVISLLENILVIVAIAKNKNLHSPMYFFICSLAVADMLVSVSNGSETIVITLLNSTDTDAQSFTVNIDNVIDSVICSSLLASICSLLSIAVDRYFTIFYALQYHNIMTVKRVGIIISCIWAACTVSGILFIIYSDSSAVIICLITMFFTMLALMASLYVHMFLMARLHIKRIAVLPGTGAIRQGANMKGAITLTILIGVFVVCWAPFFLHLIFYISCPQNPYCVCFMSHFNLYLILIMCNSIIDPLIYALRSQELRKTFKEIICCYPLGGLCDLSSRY
Sequence of Neurotensin receptor type 1 (P30989 whole entry): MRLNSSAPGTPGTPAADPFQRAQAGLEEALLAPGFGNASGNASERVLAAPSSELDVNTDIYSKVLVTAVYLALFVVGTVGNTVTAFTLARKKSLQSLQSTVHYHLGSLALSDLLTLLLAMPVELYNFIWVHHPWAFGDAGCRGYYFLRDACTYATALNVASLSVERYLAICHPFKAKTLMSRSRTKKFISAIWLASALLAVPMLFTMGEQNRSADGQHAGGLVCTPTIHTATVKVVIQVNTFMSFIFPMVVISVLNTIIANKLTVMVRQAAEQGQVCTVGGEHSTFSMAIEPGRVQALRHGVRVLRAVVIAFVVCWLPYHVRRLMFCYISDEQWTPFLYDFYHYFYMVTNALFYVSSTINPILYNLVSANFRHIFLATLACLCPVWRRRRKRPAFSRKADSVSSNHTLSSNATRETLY
Sequence of Cytochrome P450 2D6 (P10635 whole entry): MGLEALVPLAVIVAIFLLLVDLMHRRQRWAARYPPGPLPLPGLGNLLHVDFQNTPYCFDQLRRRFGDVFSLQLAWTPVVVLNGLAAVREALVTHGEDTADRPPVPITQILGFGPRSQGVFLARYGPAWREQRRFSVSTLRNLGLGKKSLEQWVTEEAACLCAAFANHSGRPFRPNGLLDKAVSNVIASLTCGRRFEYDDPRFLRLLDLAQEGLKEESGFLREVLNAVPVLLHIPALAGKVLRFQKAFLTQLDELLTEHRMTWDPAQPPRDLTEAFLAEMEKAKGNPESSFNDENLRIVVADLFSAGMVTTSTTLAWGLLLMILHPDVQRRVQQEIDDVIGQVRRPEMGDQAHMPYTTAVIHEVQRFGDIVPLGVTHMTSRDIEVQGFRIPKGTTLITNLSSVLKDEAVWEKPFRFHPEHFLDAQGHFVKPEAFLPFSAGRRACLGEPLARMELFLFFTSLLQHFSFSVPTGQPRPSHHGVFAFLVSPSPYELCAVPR

In the case of `O=C(Nc1nccs1)c1sc2cc(Cl)ccc2c1Cl`, the IC50 [1] is reported as > 32 µM (inactive), the EC50 [2] is reported as > 32 µM (inactive) and the EC50 [3] is reported as > 32 µM (inactive). For the same molecule, the EC50 [4] was 2.31 µM (active), the IC50 [5] was 9.5 µM (active) and the EC50 [6] was 17.9 µM (active). For the same molecule, the EC50 [7] was > 31.5 µM (inactive), the IC50 [8] was greater than 32 µM and the IC50 [9] was > 66.6 µM (inactive). The IC50 [10] was > 66.6 µM (inactive), the AC50 [11] was 0.631 µM (inconclusive) and the AC50 [12] was 0.891 µM (inconclusive).
In the case of `O=C1c2cccc3cccc(c23)C(=O)N1CC1CCN(CC(O)COc2ccc3ccccc3c2)CC1` (stereo not given), the EC50 [13] is reported as 6.34 µM (active), the EC50 [14] is reported as 17.9 µM (inconclusive) and the EC50 [4] is reported as 1.65 µM (active). The EC50 [6] was > 60 µM (not active), the EC50 [15] was 18.6 µM (active) and the IC50 [16] was > 20 µM (inactive). The IC50 [17] was 15 µM (active), the EC50 [18] was 18.5 µM (active) and the IC50 [19] was 7.69 µM (active). The EC50 [20] was 6.31 µM (active).
With `O=C(c1sc2ccccc2c1Cl)N(Cc1ccccc1)C1CCS(=O)(=O)C1` (stereo not given) the EC50 [21] was 3.35 µM (active) and the AC50 [22] was 14.1 µM (inconclusive).
For `O=C(CCN1C(=O)C2CC=C(Cl)CC2C1=O)NCc1ccco1` (stereo not given), the IC50 [23] was > 79.4 µM (inactive), the IC50 [24] was > 79.4 µM (inactive) and the IC50 [25] was > 79.4 µM (inactive).
With `CCOc1ccccc1NC(=O)CN1CCC(C(=O)c2ccc(F)cc2)CC1` the IC50 [16] was > 20 µM (inactive), the IC50 [17] was 13.8 µM (active) and the IC50 [19] was > 20 µM (inactive).
In the case of `CCOC(=O)c1ccc(NC(=O)NCCc2c[nH]cn2)cc1`, the EC50 [21] is reported as 0.133 µM (active).
With `CC/N=C1\Cn2c(nc3scc(-c4ccccc4)c3c2=O)CN1CC` the IC50 [26] was > 100 µM (inactive) and the IC50 [27] was > 100 µM (not active).
In the case of `COc1ccc(OC)c(/C=N/NC(=O)c2ccc(Cn3cc([N+](=O)[O-])cn3)o2)c1`, the IC50 [26] is reported as > 100 µM (inactive) and the IC50 [27] is reported as > 100 µM (not active).
